In patent publication US20080261959A1, “Novel crystalline forms of (S)-N-(1-Carboxy-2-methyl-prop-1-y)-N-pentanoyl-N[2'-(1H-tetrazol-5-yl)bi-phenyl-4-ylmethyl]-amine” (priority 2005, published 2008):

Assay: Comparative bulk density determination
Assay type: physicochemical
Details: for Bulk density: powder sample

Tapped density (1250 taps) [gm/ml] | Bulk density [gm/ml] | Tapped density (1250 taps) (listed as ‘Form D’ Vlasartan) [gm/ml] | Bulk density (listed as ‘Form D’ Vlasartan) [gm/ml] | SMILES
0.504 | 0.37 |  |  | CCCCC(=O)N(Cc1ccc(-c2ccccc2-c2nnn[nH]2)cc1)[C@H](C(=O)O)C(C)C [Amorphous valsartan, (S)-N-(1-Carboxy-2-methyl-prop-1-yl)-N-pentanoyl-N-[2′-(1H-tetrazol-5-yl)bi-phenyl-4-ylmethyl]-amine]
 |  | 0.6139 | 0.4561 | CCCCC(=O)N(Cc1ccc(-c2ccccc2-c2nnn[nH]2)cc1)[C@H](C(=O)O)C(C)C [Form D, (S)-N-(1-Carboxy-2-methyl-prop-1-yl)-N-pentanoyl-N-[2′-(1H-tetrazol-5-yl)bi-phenyl-4-ylmethyl]-amine]
